Legend:
[1] = tested on: P. falciparum 3D7 trophozoites; experiment: Metabolomic fingerprint profiling LC-MS; assay type: cell-based, Plasmodium falciparum; design: UDP-D-glucose / ADP-D-glucose: unit not given here; conditions: for Acetyllysine / N-acetyl-L-ornithine / N-carbamoyl-L-aspartate / NADPH / dAMP / dCMP / dTDP / dTMP / dTTP / dihydroorotate / orotate / DLH / DLS/SDL/SID / PD / PEE / PVNF / 3-phosphoglycerate / ADP-D-glucose / ATP / CDP / D-sedoheptulose-1/7-phosphate / FAD / GMP / NAD+ / NADP+ / Octoluse Bisphosphate / Pyroglutamic acid / UDP-D-glucose / UDP-D-glucuronate / UDP-N-acetyl-glucosamine / UDP / UMP / UTP / a-ketoglutarate / citrate/isocitrate / cytidine / dATP / dGMP/AMP / fumarate / glucose-1/6-phosphate / glycerate / guanine / guanosine / hypoxanthine / indole / inosine / nicotinate / ornithine / phosphoenolpyruvate / pyruvate / ribose-phosphate / sarcosine/alanine / sn-glycerol-3-phosphate / succinate/methylmalonic acid / uridine / xanthosine: S2 Table Metabolomics; for Acetyllysine: metabolite Acetyllysine; for N-acetyl-L-ornithine: metabolite N-acetyl-L-ornithine; for N-carbamoyl-L-aspartate: metabolite N-carbamoyl-L-aspartate; for NADPH: metabolite NADPH; for dAMP: metabolite dAMP; for dCMP: metabolite dCMP; for dTDP: metabolite dTDP; for dTMP: metabolite dTMP; for dTTP: metabolite dTTP; for dihydroorotate: metabolite dihydroorotate; for orotate: metabolite orotate; for DLH: peptide DLH; for DLS/SDL/SID: peptide DLS/SDL/SID; for PD: peptide PD; for PEE: peptide PEE; for PVNF: peptide PVNF; for 3-phosphoglycerate: metabolite 3-phosphoglycerate; for ADP-D-glucose: metabolite ADP-D-glucose; for ATP: metabolite ATP; for CDP: metabolite CDP; for CDP / D-sedoheptulose-1/7-phosphate / GMP / Octoluse Bisphosphate / UDP / UMP / UTP / citrate/isocitrate / dGMP/AMP / fumarate / glucose-1/6-phosphate / glycerate / guanine / guanosine / inosine / pyruvate / sarcosine/alanine / succinate/methylmalonic acid / uridine / xanthosine: change in metabolite level after compound treatment; for D-sedoheptulose-1/7-phosphate: metabolite D-sedoheptulose-1/7-phosphate; for FAD: metabolite FAD; for GMP: metabolite GMP; for NAD+: metabolite NAD+; for NADP+: metabolite NADP+; for Octoluse Bisphosphate: metabolite Octoluse Bisphosphate; for Pyroglutamic acid: metabolite Pyroglutamic acid; for UDP-D-glucose: metabolite UDP-D-glucose; for UDP-D-glucuronate: metabolite UDP-D-glucuronate; for UDP-N-acetyl-glucosamine: metabolite UDP-N-acetyl-glucosamine; for UDP: metabolite UDP; for UMP: metabolite UMP; for UTP: metabolite UTP; for a-ketoglutarate: metabolite a-ketoglutarate; for citrate/isocitrate: metabolite citrate/isocitrate; for cytidine: metabolite cytidine; for dATP: metabolite dATP; for dGMP/AMP: metabolite dGMP/AMP; for fumarate: metabolite fumarate; for glucose-1/6-phosphate: metabolite glucose-1/6-phosphate; for glycerate: metabolite glycerate; for guanine: metabolite guanine; for guanosine: metabolite guanosine; for hypoxanthine: metabolite hypoxanthine; for indole: metabolite indole; for inosine: metabolite inosine; for 2_3-Diphosphoglyceric acid / 4-phosphopantothenate / 6-phospho-D-gluconate / FMN / IMP / Pyrophosphate / Sedoheptoluse bisphosphate / cyclic-AMP / glutathione disulfide / lactate / myo-inositol: metabolite level change after treatment; for nicotinate: metabolite nicotinate; for ornithine: metabolite ornithine; for phosphoenolpyruvate: metabolite phosphoenolpyruvate; for pyruvate: metabolite pyruvate; for ribose-phosphate: metabolite ribose-phosphate; for sarcosine/alanine: metabolite sarcosine/alanine; for sn-glycerol-3-phosphate: metabolite sn-glycerol-3-phosphate; for succinate/methylmalonic acid: metabolite succinate/methylmalonic acid; for uridine: metabolite uridine; for xanthosine: metabolite xanthosine
[2] = tested on: P. falciparum; experiment: EC50 listed in S2 Table Metabolomics (used to set the concentration tested); assay type: cell-based; conditions: Plasmodium falciparum; EC50 used for Factor_XEC50 in metabolomics; read-out: EC50_nM

`Cc1cc(C)c2c(c1)OCN(Cc1ccccc1Cl)C2` [MMV006558] showed an Acetyllysine [1] of -2.938, a N-acetyl-L-ornithine [1] of -1.964 and a N-carbamoyl-L-aspartate [1] of -1.702. The NADPH [1] was 1.445, the dAMP [1] was -0.9651 and the dCMP [1] was -1.6. It also gave a dTDP [1] of -0.8236, a dTMP [1] of -0.6183 and a dTTP [1] of -0.3776. The dihydroorotate [1] was -0.3745, the orotate [1] was -1.522 and the DLH [1] was -1.617. It also gave a DLS/SDL/SID [1] of -1.662, a PD [1] of -0.9196 and a PEE [1] of -0.2697. The PVNF [1] was -2.308, the 3-phosphoglycerate [1] was 0.4267 and the ADP-D-glucose [1] was 0.5003. It also gave an ATP [1] of -0.07449, a CDP [1] of -0.458 and a D-sedoheptulose-1/7-phosphate [1] of -0.2481. The FAD [1] was -0.09577, the GMP [1] was -0.6278 and the “NAD+” value [1] was -0.187. The “NADP+” value [1] was 0.696, the “Octoluse Bisphosphate” value [1] was 0.1942 and the Pyroglutamic acid [1] was -0.3768. For the same compound, the UDP-D-glucose [1] was -0.01001, the UDP-D-glucuronate [1] was -0.03433 and the UDP-N-acetyl-glucosamine [1] was -0.1316. The UDP [1] was -0.1918, the UMP [1] was -1.063 and the UTP [1] was -0.2178. For the same compound, the a-ketoglutarate [1] was -0.938, the citrate/isocitrate [1] was -0.4783 and the cytidine [1] was 0.109. It also gave a dATP [1] of -0.2852, a dGMP/AMP [1] of -0.5349 and a fumarate [1] of -0.8198. The glucose-1/6-phosphate [1] was -0.2057, the glycerate [1] was -0.7466 and the guanine [1] was -1.035. It also gave a guanosine [1] of -2.479, a hypoxanthine [1] of -0.7995 and an indole [1] of -0.5445. It also gave an inosine [1] of -0.9523, a 2_3-Diphosphoglyceric acid [1] of 0.34 and a 4-phosphopantothenate [1] of -0.8939. The 6-phospho-D-gluconate [1] was 0.2839, the FMN [1] was -0.2862 and the IMP [1] was -0.2354. For the same compound, the Pyrophosphate [1] was 0.3685, the Sedoheptoluse bisphosphate [1] was 0.2016 and the cyclic-AMP [1] was -0.8187. For the same compound, the glutathione disulfide [1] was -0.2625, the lactate [1] was -0.7314 and the myo-inositol [1] was -0.7596. It also gave a nicotinate [1] of -0.1344, an ornithine [1] of -0.1775 and a phosphoenolpyruvate [1] of 0.3748. For the same compound, the pyruvate [1] was -0.4201, the ribose-phosphate [1] was -0.1559 and the sarcosine/alanine [1] was -0.2827. The sn-glycerol-3-phosphate [1] was 0.1135, the succinate/methylmalonic acid [1] was -0.725 and the uridine [1] was -1.514. For the same compound, the xanthosine [1] was -1.032 and the EC50 [2] was 268 nM.

`COc1ccccc1CNC(=O)CCn1c(=O)[nH]c2ccccc2c1=O` [MMV665916] was tested, and the Acetyllysine [1] was 0.3638, the N-acetyl-L-ornithine [1] was 0.3943 and the N-carbamoyl-L-aspartate [1] was -0.2097. It also gave an NADPH [1] of -0.7222, a dAMP [1] of 0.5335 and a dCMP [1] of -0.1283. For the same compound, the dTDP [1] was 0.2837, the dTMP [1] was 0.1911 and the dTTP [1] was 0.1028. It also gave a dihydroorotate [1] of 0.195, an orotate [1] of 0.1648 and a DLH [1] of -0.3906. For the same compound, the DLS/SDL/SID [1] was -0.1223, the PD [1] was 0.1255 and the PEE [1] was 0.2968. It also gave a PVNF [1] of -0.3118, a 3-phosphoglycerate [1] of 0.2339 and an ADP-D-glucose [1] of 0.1724. For the same compound, the ATP [1] was 0.1531, the CDP [1] was 0.2423 and the D-sedoheptulose-1/7-phosphate [1] was 0.1783. For the same compound, the FAD [1] was 0.06654, the GMP [1] was -0.759 and the “NAD+” value [1] was 0.08579. The “NADP+” value [1] was 0.1944, the “Octoluse Bisphosphate” value [1] was 0.5392 and the Pyroglutamic acid [1] was -0.1569. The UDP-D-glucose [1] was 0.1671, the UDP-D-glucuronate [1] was 0.1875 and the UDP-N-acetyl-glucosamine [1] was 0.2144. It also gave a UDP [1] of 0.1783, a UMP [1] of -0.6315 and a UTP [1] of 0.2956. The a-ketoglutarate [1] was -0.329, the citrate/isocitrate [1] was -0.5155 and the cytidine [1] was -0.1275. The dATP [1] was 0.146, the dGMP/AMP [1] was 0.3579 and the fumarate [1] was -0.07198. The glucose-1/6-phosphate [1] was -0.1463, the glycerate [1] was 0.2881 and the guanine [1] was -0.1565. For the same compound, the guanosine [1] was -0.3335, the hypoxanthine [1] was -0.2904 and the indole [1] was -0.1941. It also gave an inosine [1] of -0.04044, a 2_3-Diphosphoglyceric acid [1] of 0.5062 and a 4-phosphopantothenate [1] of 0.1361. For the same compound, the 6-phospho-D-gluconate [1] was 0.2552, the FMN [1] was 0.1915 and the IMP [1] was 0.3796. The Pyrophosphate [1] was 0.2568, the Sedoheptoluse bisphosphate [1] was 0.5745 and the cyclic-AMP [1] was 0.1551. For the same compound, the glutathione disulfide [1] was 0.2989, the lactate [1] was -0.2145 and the myo-inositol [1] was 0.9008. For the same compound, the nicotinate [1] was -0.1745, the ornithine [1] was 0.1369 and the phosphoenolpyruvate [1] was 0.02242. It also gave a pyruvate [1] of -0.2103, a ribose-phosphate [1] of -0.4062 and a sarcosine/alanine [1] of 0.2908. It also gave a sn-glycerol-3-phosphate [1] of -0.1634, a succinate/methylmalonic acid [1] of -0.1615 and a uridine [1] of -0.1737. The xanthosine [1] was -0.4685 and the EC50 [2] was 72.6 nM.

`CCOC(=O)c1cnc2c(C)cc(C)cc2c1Nc1ccc(OC)c(OC)c1` [MMV008294] was tested, and the Acetyllysine [1] was -0.3425, the N-acetyl-L-ornithine [1] was -0.09501 and the N-carbamoyl-L-aspartate [1] was 2.682. For the same compound, the NADPH [1] was 1.75, the dAMP [1] was 0.2089 and the dCMP [1] was -0.6198. The dTDP [1] was -0.4672, the dTMP [1] was -0.4876 and the dTTP [1] was -1.144. For the same compound, the dihydroorotate [1] was 3.3871, the orotate [1] was -0.7416 and the DLH [1] was -0.5675. For the same compound, the DLS/SDL/SID [1] was -0.4346, the PD [1] was -0.1287 and the PEE [1] was -0.648. For the same compound, the PVNF [1] was -0.7723, the 3-phosphoglycerate [1] was -0.683 and the ADP-D-glucose [1] was -0.352. For the same compound, the ATP [1] was -0.07176, the CDP [1] was -0.1705 and the D-sedoheptulose-1/7-phosphate [1] was -0.3446. The FAD [1] was 0.0322, the GMP [1] was -0.1695 and the “NAD+” value [1] was -0.3043. For the same compound, the “NADP+” value [1] was -0.3797, the “Octoluse Bisphosphate” value [1] was -0.4297 and the Pyroglutamic acid [1] was 0.3043. For the same compound, the UDP-D-glucose [1] was -0.27, the UDP-D-glucuronate [1] was -0.2831 and the UDP-N-acetyl-glucosamine [1] was -0.5063. It also gave a UDP [1] of -0.5787, a UMP [1] of -1.283 and a UTP [1] of -1.136. The a-ketoglutarate [1] was -0.236, the citrate/isocitrate [1] was 0.7822 and the cytidine [1] was 0.0959. It also gave a dATP [1] of 1.0046, a dGMP/AMP [1] of -0.5258 and a fumarate [1] of -0.9618. It also gave a glucose-1/6-phosphate [1] of 0.01885, a glycerate [1] of 0.4536 and a guanine [1] of 0.3469. For the same compound, the guanosine [1] was 2.083, the hypoxanthine [1] was 0.2152 and the indole [1] was 0.4569. For the same compound, the inosine [1] was 0.05445, the 2_3-Diphosphoglyceric acid [1] was -0.768 and the 4-phosphopantothenate [1] was -0.7166. For the same compound, the 6-phospho-D-gluconate [1] was -0.1153, the FMN [1] was 0.06908 and the IMP [1] was -0.2706. The Pyrophosphate [1] was -0.2511, the Sedoheptoluse bisphosphate [1] was -0.4052 and the cyclic-AMP [1] was -0.1956. The glutathione disulfide [1] was -0.2281, the lactate [1] was 0.2967 and the myo-inositol [1] was 0.2424. For the same compound, the nicotinate [1] was 0.04647, the ornithine [1] was -0.4808 and the phosphoenolpyruvate [1] was -0.6158. The pyruvate [1] was 0.09912, the ribose-phosphate [1] was -0.7165 and the sarcosine/alanine [1] was -0.5269. It also gave a sn-glycerol-3-phosphate [1] of -0.7886, a succinate/methylmalonic acid [1] of 0.008672 and a uridine [1] of -0.03724. For the same compound, the xanthosine [1] was 0.1462 and the EC50 [2] was 232 nM.

Source: article PMC4965013, “Open Source Drug Discovery with the Malaria Box Compound Collection for Neglected Diseases and Beyond” (PLoS Pathogens, 2016)
